Where “and” joins values, the source holds several entries; their conditions need not be identical. Equal entries are not always repeated.
What was measured:
[1] = test system: vascular endothelial cell growth factor (VEGF) in human retinal pigment epithelial cells (hRPE); test: VEGF secretion by human retinal pigment epithelial cells (VEGF ELISA of culture medium); type: cell-based
Description: Human eyes were obtained from the National Disease Resource Interchange within 36 h of death. hRPE cells were prepared and maintained as described by Grant et al., in Curr. Eye Res., 9(4):323-335 (1990), and Enzmann et al., in Transpl Immunol, March 7(1): 9-14 (1999). For cell culture experiments, hRPE from passages 3-5 were used. All tissue culture media was purchased from Mediatech, Inc., Herndon, Fla. hRPE cultures were placed in glutamine-free medium for 24 hrs and then were exposed either to 0, 0.5, 1, 2.5 or 5 mg/ml of Arg-gln dipeptide for 48 hrs. At the end of 48 hrs, VEGF content of the culture medium containing the hRPE cells was measured using the Quantikine® Human VEGF Immunoassay ELISA kit (R&D Systems, Minneapolis, Minn.).

[2] = test system: neonatal mouse model of oxygen-induced retinopathy; test: Neonatal mouse model of oxygen-induced retinopathy, intra-peritoneal injection, pre-retinal nuclei count and retinal flat mounts; type: in vivo; conditions: for reduction in preretinal nuclei / preretinal vascularization: 5 g/kg/d intra-peritoneal, twice daily, P12-P17, versus vehicle
Description: (§1) In the neonatal mouse model of oxygen-induced retinopathy, 7-day old mice were placed with their nursing dams in a 75% oxygen atmosphere for 5 days. (Smith et al., Invest Ophthalmol Vis Sci., 35(1):101-111 (1994). Mouse pups received twice daily intra-peritoneal injections (50 μl) starting on postnatal day 12 (P12) and continuing through postnatal day 17 (P17). In one experiment, injections included vehicle (0.9% sodium chloride) and the test compounds Ala-gly (5 g/kg/d), Arg-gln dipeptide (5 g/kg/d) and in a second experiment, different doses of Arg-gln (1.0, 2.5 and 5 g/kg/d) were tested.
(§2) After the fifth day following return to normoxia (P17), the animals were euthanized by injection of a lethal dose of a combination of ketamine (70 mg/kg body weight) and xylazine (15 mg/kg body weight) followed by cervical dislocation. The eyes were removed and fixed in 4% paraformaldehyde, embedded in paraffin, and sectioned as previously described. (Smith et al., Id.) Pre-retinal nuclei were counted by masked observers. Efficacy of treatment was calculated as the percent average nuclei per section in the eyes of Arg-Gln treated animals versus control animals.
All data represent the mean±SEM. ANOVA was used to evaluate differences among groups, and individual contrasts were done using Student t-tests with Bonferroni correction was used to determine the significance between groups.

[3] = test system: VEGF mRNA; test: VEGF mRNA in retina of oxygen-induced retinopathy mice (real-time RT-PCR); type: in vivo, mouse; conditions: 5 g/kg/d parenteral, day 5 after removal from high oxygen, P=0.007
Description: as §1
For total RNA isolations from retina the animals were sacrificed and the eyes removed. The retina were then dissected away from the eye and stored in RNAlater® buffer (Ambion, Austin, Tex.) at 4° C. for subsequent isolation of protein or RNA.
VEGF protein concentration was determined from isolated mouse retinas using the Quantikine® Human VEGF Immunoassay ELISA kit (R&D Systems, Minneapolis, Minn.). Pups were treated with the 5 g/kg/d dose of dipeptide and at varying time points after the pups were removed from oxygen on day 12. Eyes were enucleated at 0.5, 1 and 5 days post removal from high oxygen (n=14 eyes for each data point). Vehicle treated animals were compared to dipeptide-treated animals. […]

[4] = test system: neonatal mouse model of oxygen-induced retinopathy; test: Neonatal mouse model of oxygen-induced retinopathy, gavage (enteral) administration, pre-retinal nuclei count; type: in vivo; conditions: gavage, 1, 2.5 and 5 gm/kg·day, P12-P17, versus vehicle; dose/response, highest effectiveness at 5 gm/kg·day
Source text: In the neonatal mouse model of oxygen-induced retinopathy, 7-day old mice were placed with their nursing dams in a 75% oxygen atmosphere for 5 days. Mouse pups received twice a day gavage feedings of dipeptide or control solution (50 microliter) starting on postnatal day 12 (P12) and continuing through postnatal day 17 (P17). Gavage feeds included vehicle (0.9% sodium chloride) and the test compounds and different doses of Arg-Gln (1.0, 2.5 and 5 gm/kg/d). The daily dosage of the dipeptide was divided evenly between the two daily gavage feedings.
as §2, with “sectioned.” for “sectioned as previously described. (Smith et al., Id.)”

| Substance | effect on VEGF secretion as a function of the level of Arg-gln (FIG. 1) ([1]; 0-5 mg/ml, 48 hrs) | decrease in soluble VEGF expression into the culture medium ([1]; 1.5 mM Arg-gln, 48 hrs exposure after 24 hrs in glutamine-free medium, P=0.002) [%] | effect on preretinal nuclei, all doses ([2]; 1.0, 2.5 and 5.0 g/kg/d intra-peritoneal, five days of treatment, P<0.00001) | effect on preretinal nuclei at the lowest dose tested (FIG. 2) ([2]; 1 gm/kg·day intra-peritoneal, P12-P17) | reduction in preretinal nuclei / preretinal vascularization [2] | reduction in preretinal nuclei / preretinal vascularization ([2]; listed as Arg-gln dipeptide) [%] | retinal flat mounts (fluorescently labeled dextran): neovascular tufts and vascular leakage ([2]; Arg-gln treated pups compared to control dipeptide Ala-gly treated pups) | VEGF mRNA in retina versus vehicle-treated pups [3] | VEGF mRNA in retina versus vehicle-treated pups ([3]; listed as Arg-gln dipeptide) | average nuclei per section in the eyes (FIG. 4) [4] |
| --- | --- | --- | --- | --- | --- | --- | --- | --- | --- | --- |
| arginyl-glutamine dipeptide [Arg-gln] | statistically significant dose-dependent decrease | 52.3±6.2 | significant reduction | significant reduction | ~80% and 82±7% | 80 | reduced neovascular tufts and vascular leakage | significant reduction | much lower | decreased at all levels of administration |
| Ala-gly [reference compound] |  |  |  |  | 2±5% |  |  |  |  |  |

Reference: US20060229256A1, “Enternal administration of arginine and glutamine for abnormal vascular proliferation” (Bristol-Myers Squibb Company, priority 2003, published 2006)
